Data on four compounds can be found in PubChem BioAssay AID2060490 (Molecular Pharmacology Branch, DTP, NCI, 2025).

Several values for one entry are separate records, joined by “and”; a condition that tells them apart may be missing. Equal values may be shown once.

A word on the viability, T/C: it is the result in the treated group divided by that in the control group, in per cent. As usually defined, the IC50 is the point on the concentration scale where inhibition reaches its midpoint.

The test concerns 885512-296-R-J2-PDC complex spheroid viability. Description: Anticancer human tumor 885512-296-R-J2-PDC patient-derived breast carcinoma cell line growth inhibition [GQUAD]. The conditions noted are these: for viability, T/C: stronger effect = lower value. The source says: DNA G-quadruplex Stabilizer Agents in Combinations in Complex Spheroids
A high-throughput screen of multi-cell type tumor spheroids was designed to identify active combinations of DNA G-quadruplex stabilizer agents and targeted small molecules. Complex spheroids include a stromal component modeled by human endothelial cells (HUVEC) and fibroblasts modeled by human mesenchymal stem cells (MSCs). The concentration ranges selected for each drug and investigational agent were based upon clinically achievable concentrations if the clinical Cmax of the agent was known.
Compounds. The drugs and investigational agents: pidnarulex (CX-5461; NSC782164), APTO-253 (NSC789042), BRACO-19 (NSC847499), peposertib (NSC802822), ceralasertib (NSC780249), elimusertib (NSC800525), camonsertib (NSC841442), AZD-1390 (NSC803789), olaparib (NSC753686), talazoparib (NSC767125), ART-558 (NSC835418), sotorasib (NSC818433), MRTX-1133 (NSC836407), SN-38 (NSC673596), topotecan (NSC609699), etoposide (NSC141540), doxorubicin (NSC123127), gemcitabine (NSC613327), 5-fluorouracil (NSC19893), paclitaxel (NSC125973), vemurafenib (NSC761431), panobinostat (NSC761190), R-306465 (JNJ-16241199; NSC773264), adavosertib (NSC754352), TP-3654 (NSC805149), carboplatin (NSC241240), KSQ-4279 (NSC840948), and staurosporine (NSC755774) were obtained from the National Cancer Institute (NCI) Developmental Therapeutics Program Chemical Repository (34). The FDA-approved anticancer drug set is available from the NCI Developmental Therapeutics Program. […] The stock solutions were prepared in dimethyl sulfoxide (DMSO, Sigma-Aldrich, St. Louis, MO, cat. D2650) at 800-fold the tested concentration and stored at -70 degrees C prior to their use. All drugs and investigational agents were tested over a range starting from a high concentration at or near the clinical Cmax and decreasing in half-log increments. If the clinical Cmax for an agent had not been determined, the highest concentration tested was 10 microM.
2.3 Cell Culture. All cells were maintained in an incubator at 37 degrees C and 5% CO2 with 95% humidity. The PDC lines were cultured according to standard operating procedures established by the NCI PDMR. All PDCs were thawed and cultured in Matrigel-coated flasks prepared with a working solution of 1X Ham's F-12 nutrient mix, without supplementation (Invitrogen, cat. 11765054), 100 U/mL penicillin-streptomycin (Invitrogen, cat. 15140122), and 2.5% Matrigel (Corning Inc., cat. 354248) for the first three passages. The 857933-349-R-J2-PDC line was cultured in 6C/Colon 1B media, which includes advanced DMEM/F-12 (Thermo Fisher Scientific, cat. 12634028), 10 mM HEPES (Thermo Fisher Scientific, cat. 15630080), 1X GlutaMAX supplement (Thermo Fisher Scientific, cat. 35050061), 0.1 mg/mL primocin (InvivoGen, cat. ant-pm-2), 10% defined fetal bovine serum, heat inactivated (HyClone Laboratories Inc., cat. SH30070.03HI), 50% L-WRN conditioned media (ATCC, cat. CRL-3276), 1.25 mM N-Acetyl-L-cysteine (Sigma-Aldrich, cat. A9165), 10 mM nicotinamide (Sigma-Aldrich, cat. N0636), 1X B-27 supplement (Thermo Fisher Scientific, cat. 17504044), 1X N-2 supplement (Thermo Fisher Scientific, cat. 17502048), 10 microM Y-27632 dihydrochloride (Tocris Bioscience, cat. 1254), and 50 ng/mL human EGF recombinant protein (Thermo Fisher Scientific, cat. PHG0311). The 485176-168-R4-J1-PDC line was cultured in Panc media, which includes all 6C/Colon 1B media components plus 100 ng/mL human FGF-10 (Thermo Fisher Scientific, cat. 100-26), 500 nM SB-431542 (Selleckchem, cat. S1067), and gastrin (Tocris, cat. 3006).
[…]

The mark [1] stands for this setting: compound alone, run of 04/22/2024.
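Also: spheroids exposed to the compounds for one week.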
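For viability, T/C in this document: percent of tumor spheroid viability relative to DMSO vehicle control wells.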

Turning to `Cc1[nH]c2ccc(F)cc2c1-c1nc2c3cccnc3c3ncccc3c2[nH]1`, the viability, T/C reads like this: (compound 0.0316 µM) 99.9% [middle of 12 runs]; (compound 0.1 µM) 101% [middle of 12 runs]; (compound 0.316 µM) 97.9% [middle of 12 runs]; (compound 1 µM) 76.9% [middle of 12 runs]; (compound 10 µM) 3.15% [middle of 12 runs]. Also, the IC50 is 1.75 µM [middle of 8 runs] (compound alone, run of 04/16/2024) and 1.54 µM [middle of 4 runs] under setting [1].

Turning to `C=CC(=O)N1CCN(c2nc(=O)n(-c3c(C)ccnc3C(C)C)c3nc(-c4c(O)cccc4F)c(F)cc23)C(C)C1` (stereo not drawn) + Cc1cnc(CNC(=O)c2c(=O)c3ccc(N4CCCN(C)CC4)nc3n3c2sc2ccccc23)cn1, the IC50 was greater than 10000 nM (curve of first compound, second compound 0.0316 µM); greater than 10000 nM (curve of first compound, second compound 0.1 µM); less than 31.6 nM (curve of first compound, second compound 0.316 µM); less than 31.6 nM (curve of first compound, second compound 1 µM); less than 31.6 nM (curve of first compound, second compound 3.16 µM); less than 31.6 nM (curve of first compound, second compound 10 µM). In addition, the viability, T/C was 90.5% (second compound 0.0316 µM, first compound 0.0316 µM); 81.3% (second compound 0.0316 µM, first compound 0.1 µM); 107% (second compound 0.0316 µM, first compound 0.316 µM); 105% (second compound 0.0316 µM, first compound 1 µM); 99.1% (second compound 0.0316 µM, first compound 3.16 µM); 76.9% (second compound 0.0316 µM, first compound 10 µM). Also, the viability, T/C (second compound 0.1 µM, first compound 0.0316 µM) is 60.9%; the viability, T/C (second compound 0.1 µM, first compound 0.1 µM) was 66%; the viability, T/C (second compound 0.1 µM, first compound 0.316 µM) is 68.5%; the viability, T/C (second compound 0.1 µM, first compound 1 µM) is 67.5%; the viability, T/C (second compound 0.1 µM, first compound 3.16 µM) was 79.5%; the viability, T/C (second compound 0.1 µM, first compound 10 µM) is 47.3%. Besides, the viability, T/C (second compound 0.316 µM, first compound 0.0316 µM) was 35.9%; the viability, T/C (second compound 0.316 µM, first compound 0.1 µM) was 29.3%; the viability, T/C (second compound 0.316 µM, first compound 0.316 µM) is 33.8%; the viability, T/C (second compound 0.316 µM, first compound 1 µM) was 31.1%; the viability, T/C (second compound 0.316 µM, first compound 3.16 µM) was 33.6%; the viability, T/C (second compound 0.316 µM, first compound 10 µM) is 24%. The viability, T/C (second compound 1 µM, first compound 0.0316 µM) was 23.4%; the viability, T/C (second compound 1 µM, first compound 0.1 µM) was 30.9%; the viability, T/C (second compound 1 µM, first compound 0.316 µM) was 33.2%; the viability, T/C (second compound 1 µM, first compound 1 µM) is 24.1%; the viability, T/C (second compound 1 µM, first compound 3.16 µM) is 22.6%; the viability, T/C (second compound 1 µM, first compound 10 µM) was 28.3%. For the same compound, the viability, T/C is 34.5% (second compound 3.16 µM, first compound 0.0316 µM); 31.4% (second compound 3.16 µM, first compound 0.1 µM); 19.4% (second compound 3.16 µM, first compound 0.316 µM); 27% (second compound 3.16 µM, first compound 1 µM); 29.8% (second compound 3.16 µM, first compound 3.16 µM); 32.3% (second compound 3.16 µM, first compound 10 µM). Also, the viability, T/C is 0.14% (second compound 10 µM, first compound 0.0316 µM); 0.2% (second compound 10 µM, first compound 0.1 µM); 0.24% (second compound 10 µM, first compound 0.316 µM); 0.2% (second compound 10 µM, first compound 1 µM); 0.2% (second compound 10 µM, first compound 3.16 µM); 1.55% (second compound 10 µM, first compound 10 µM).

Turning to `CN(C)c1ccc(Nc2c3ccc(NC(=O)CCN4CCCC4)cc3nc3cc(NC(=O)CCN4CCCC4)ccc23)cc1`, the viability, T/C (compound 0.0316 µM) was 100% [middle of 12 runs]; the viability, T/C (compound 0.1 µM) is 102% [middle of 12 runs]; the viability, T/C (compound 0.316 µM) is 105% [middle of 12 runs]; the viability, T/C (compound 1 µM) was 102% [middle of 12 runs]; the viability, T/C (compound 3.16 µM) was 103% [middle of 12 runs]; the viability, T/C (compound 10 µM) was 21.1% [middle of 12 runs]. Further, the IC50 under setting [1] is 6.43 µM [middle of 11 runs].

Consider `Cn1ncnc1[C@H]1c2n[nH]c(=O)c3cc(F)cc(c23)N[C@@H]1c1ccc(F)cc1`, for which the viability, T/C was 100% and 96.8% and 93.9% (compound 0.000999 µM); 93.9% and 87.6% and 102% (compound 0.00316 µM); 80.8% and 90.4% and 90% (compound 0.00999 µM); 81.4% and 84.2% and 82.3% (compound 0.0316 µM); 75.4% and 66.1% and 67.8% (compound 0.0999 µM); 50.8% and 45.5% and 53.5% (compound 0.316 µM). Moreover, the IC50 (curve of compound) was > 316 nM and 246 nM.
